Reference: ChEMBL document CHEMBL1201862, “PubChem BioAssay data set” (2004)
Active and inactive are the calls of the source.

Legend:
[1] = molecular target: Neuropeptide Y receptor type 2 (Homo sapiens, UniProt P49146); format: functional, cell-based;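 further: HEK293 cells expressing the receptor and a CNG channel; stimulus was NPY near EC95 followed by isoproterenol to raise cAMP; antagonist potency measured as restoring cAMP signal that NPY suppresses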
[2] = molecular target: Neuropeptide Y receptor type 1 (Homo sapiens, UniProt P25929); format: functional;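 further: HEK293 cells with a CNG channel challenged with NPY then isoproterenol; potency as antagonist that reverses NPY suppression of cAMP signal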
Neuropeptide Y receptor type 1, sequence (P25929 whole entry): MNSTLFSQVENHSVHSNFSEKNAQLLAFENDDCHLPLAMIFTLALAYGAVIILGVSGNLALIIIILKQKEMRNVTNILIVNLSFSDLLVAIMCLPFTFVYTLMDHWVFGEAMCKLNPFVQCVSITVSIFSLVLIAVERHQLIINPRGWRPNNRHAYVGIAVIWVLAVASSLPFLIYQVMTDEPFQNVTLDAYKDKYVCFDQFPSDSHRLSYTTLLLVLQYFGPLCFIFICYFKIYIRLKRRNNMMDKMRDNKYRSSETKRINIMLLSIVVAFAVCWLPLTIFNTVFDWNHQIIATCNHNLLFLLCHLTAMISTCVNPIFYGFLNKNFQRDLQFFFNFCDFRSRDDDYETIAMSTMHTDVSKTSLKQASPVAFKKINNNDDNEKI

[3] = fluconazole-exposed Candida albicans growth modulators – fluorescence, retest, confirmation (AID 2467); format: functional, cell-based
Estrogen receptor beta = Estrogen receptor beta (Homo sapiens, UniProt Q92731); experiment: blockers of SRC-3 recruitment to ERβ – biochemical, ELISA, streptavidin-HRP readout, orthogonal assay, confirmation (AID 1060)
Estrogen receptor beta, sequence (Q92731 whole entry): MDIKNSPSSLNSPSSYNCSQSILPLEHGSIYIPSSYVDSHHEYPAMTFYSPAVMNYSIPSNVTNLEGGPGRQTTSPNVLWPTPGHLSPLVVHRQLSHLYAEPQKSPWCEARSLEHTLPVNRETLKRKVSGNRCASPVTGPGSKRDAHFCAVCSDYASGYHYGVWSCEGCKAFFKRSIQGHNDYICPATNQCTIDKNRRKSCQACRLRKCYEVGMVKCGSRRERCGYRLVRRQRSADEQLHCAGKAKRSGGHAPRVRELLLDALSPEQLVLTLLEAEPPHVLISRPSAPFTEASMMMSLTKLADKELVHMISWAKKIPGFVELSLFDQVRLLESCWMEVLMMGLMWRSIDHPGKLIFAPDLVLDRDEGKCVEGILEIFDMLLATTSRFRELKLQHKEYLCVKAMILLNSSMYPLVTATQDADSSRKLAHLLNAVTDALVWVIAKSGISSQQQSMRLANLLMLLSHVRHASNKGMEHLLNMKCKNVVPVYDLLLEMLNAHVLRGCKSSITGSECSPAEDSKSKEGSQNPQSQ

[4] = NIH-3T3 fibroblast cytotoxicity, dose response, cytotoxicity control, cell-based, fluorescence, Alamar Blue, secondary assay (AID 2327); format: functional;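 further: NIH-3T3 mouse fibroblasts cultured with fluconazole at 8 µg/mL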
Vero = experiment: mammalian cell viability reduction – secondary assay, cytotoxicity control for West Nile virus antiviral project, dose response (AID 1650); format: functional; details: Chlorocebus sabaeus
[5] = test system: Streptococcus sp. 'group A'; experiment: Streptococcus pyogenes SK(-)GAS viability under kanamycin – luminescence, BacTiterGlo, confirmation, counter-screen for streptokinase expression inhibitor project, dose response (AID 1900); format: functional, organism-based
[6] = blockers of bursicon-stimulated LGR2 cAMP reporter – cell-based, HEK293, CRE-luciferase reporter, cherry pick, set 2, dose response (AID 743343); format: functional;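 further: transfected cells were stimulated with diluted bursicon conditioned medium after compound addition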
[7] = A549 cell cytotoxicity, dose response, cytotoxicity control, plate reader, cherry-pick, antagonist series (AID 743412); format: functional, cell-based
[8] = toxicity toward HepG2 liver cells – cell-based, plate reader, cherry-pick, antagonist series, cytotoxicity control, dose response (AID 743416); format: functional
[9] = viability loss in HEK293 cells – cell-based, plate reader, cherry-picked samples, cytotoxicity control, dose response (AID 743446); format: functional
[10] = Luminescence-based counterscreen assay for KLF5 inhibitors: dose response cell-based high throughput screening assay to identify cytotoxic compounds using the IEC-6 intestinal epithelial cell line. [Related pubchem assays: 1700 (Primary screen.), 1834 (Confirmation screen.), 1858 (Summary AID.), 1905 (Counterscreen.)]; format: functional
Streptococcus = experiment: GAS UMAA2166 growth inhibition – luminescence, BacTiterGlo, counter-screen for streptokinase expression inhibitor project, dose response (AID 1915); format: functional, organism-based;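 further: potency for reduction of bacterial viability or growth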
Streptokinase A = molecular target: T1, Streptokinase A (Streptococcus pyogenes serotype M1, UniProt P10520); experiment: viability-normalized secreted streptokinase activity reduction – plasminogen activation absorbance, OD405, dose response (AID 1914); format: functional, Streptococcus pyogenes M1 GAS;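 further: secreted streptokinase activity via plasminogen activation per viability signal from cell pellet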
T1 sequence (P10520 whole entry): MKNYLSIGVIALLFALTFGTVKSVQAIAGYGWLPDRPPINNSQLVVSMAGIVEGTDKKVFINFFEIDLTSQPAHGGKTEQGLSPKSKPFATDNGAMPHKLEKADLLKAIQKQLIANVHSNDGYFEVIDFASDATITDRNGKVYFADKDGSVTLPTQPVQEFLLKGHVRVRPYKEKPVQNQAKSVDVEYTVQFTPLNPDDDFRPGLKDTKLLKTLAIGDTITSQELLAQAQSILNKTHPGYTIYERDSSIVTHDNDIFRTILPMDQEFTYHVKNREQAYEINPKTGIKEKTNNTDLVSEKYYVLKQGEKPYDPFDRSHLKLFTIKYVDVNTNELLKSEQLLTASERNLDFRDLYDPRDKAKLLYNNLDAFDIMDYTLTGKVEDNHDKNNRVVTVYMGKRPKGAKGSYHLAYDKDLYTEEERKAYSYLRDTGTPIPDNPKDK

[11] = blockade of melanocortin 4 receptor signaling – cell-based, plate reader, cherry pick, counter-screen for LGR2 antagonist project, dose response (AID 743444); format: functional;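 further: transfected HEK 293 cells stimulated with alpha-MSH peptide; potency of inhibitors of the alpha-MSH evoked signal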

Neuropeptide Y receptor type 2, sequence (P49146 whole entry): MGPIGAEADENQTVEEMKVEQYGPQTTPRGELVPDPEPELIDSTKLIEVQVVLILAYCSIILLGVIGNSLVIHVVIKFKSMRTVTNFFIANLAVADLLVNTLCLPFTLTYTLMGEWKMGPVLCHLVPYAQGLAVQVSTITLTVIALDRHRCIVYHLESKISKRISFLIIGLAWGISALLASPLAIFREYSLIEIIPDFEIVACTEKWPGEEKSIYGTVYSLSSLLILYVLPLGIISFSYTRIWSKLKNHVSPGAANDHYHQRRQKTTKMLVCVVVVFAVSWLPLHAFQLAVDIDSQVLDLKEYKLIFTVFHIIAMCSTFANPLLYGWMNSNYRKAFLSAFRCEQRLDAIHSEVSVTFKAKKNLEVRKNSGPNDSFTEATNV

SMILES: COc1ccc(-c2noc(COc3ccc(Cl)c(C)c3)n2)cc1
- IC50 [1]: 4.25 µM (active)
- IC50 [2]: 5.14 µM (active)

SMILES: CN1CCN(C(c2cccnc2)c2ccc3cccnc3c2O)CC1 (stereo not given)
- EC50 [3]: > 38 µM (not active)
- IC50 (Estrogen receptor beta): 32.6 µM (not active)
- EC50 [4]: > 160 µM (inactive)

SMILES: COC(=O)C1=C(C(=O)OC)SC(=C2C(=S)C(C)(C)N(C(=O)CC(C)C)c3ccccc32)S1
- CC50 (Vero): 49.5 µM (active)

SMILES: O=C(Nc1nc2cc3c(cc2s1)OCCO3)c1ccco1
- EC50 [5]: 19.5 µM (active)
- AC50 [6]: 1.12 µM (active)
- AC50 [7]: 12.9 µM (active)
- AC50 [8]: 28.5 µM (active)
- AC50 [9]: 45.4 µM (active)
- IC50 [10]: 7.91 µM (active)
- EC50 (Streptococcus): 53.5 µM (active)
- EC50 (Streptokinase A): > 150 µM (not active)
- AC50 [11]: 1.07 µM (active)
